Experimental data reported in US6613718B2, “Aryl ether derivatives and processes for their preparation and herbicidal and desiccant compositions containing them” (Ishihara Sangyo Kaisha, Ltd., priority 2001, dated 2003).

What was measured:
Format in all cases: in vivo
Conditions in all cases: 14 days after application
[1] = tested on: barnyardgrass (Echinochloa crus-galli, ECHCG); assay: Pre-emerge greenhouse herbicide activity screening, phytotoxicity rating
Text: (§1) A standard greenhouse herbicide activity screening system was used to evaluate the herbicidal efficacy and crop safety of these test compounds. Seven broadleaf weed species including redroot pigweed (Amaranthus retroflexus, AMARE), velvetleaf (Abutilon theophrasti, ABUTH), sicklepod (Cassia obtusifolia, CASOB), ivyleaf morningglory (Ipomoea hederacea, IPOHE), lambsquarters (Chenopodium album, CHEAL), common ragweed (Ambrosia artemisiifolia L., AMBEL), and cocklebur (Xanthium strumarium, XANST) were used as test species. Four grass weed species including green foxtail (Setaria viridis, SETVI), barnyardgrass (Echinochloa crus-galli, ECHCG), johnsongrass (Sorghum halepense, SORHA), and large crabgrass (Digitaria sanguinalis, DIGSA) were also used. In addition, three crop species, field corn (Zea mays L., var. Dekalb 535, CORN), soybean (Glycine max L., var. Pella 86, SOY), and upland rice (Oryza sp., var.Tebonnet, RICE) were included.
(§2) All plants were grown in 10 cm square plastic pots which were filled with a sandy loam soil mix. For pre-emerge tests, seeds were planted one day prior to application of the test compounds. For post-emerge tests, seeds were planted 8-21 days prior to the test to allow emergence and good foliage development prior to application of the test substances. At the time of the post-emerge application, plants of all species were usually at the 2-3 leaf stage of development.
(§3) All test compounds were dissolved in acetone and applied to the test units in a volume of 187 1/ha. Test materials were applied at rates ranging from 15 g ai/ha to 1000 g ai/ha using a track sprayer equipped with a TJ8001E even flow flat fan spray nozzle. Plants were arranged on a shelf so that the top of the canopy (post-emerge) or top of the soil surface (pre-emerge) was 40-45 cm below the nozzle. Pressurized air was used to force the test solution through the nozzle as it was mechanically advanced (via electrically driven chain drive) over the top of all test plants/pots. This application simulates a typical commercial field herbicide application.
(§4) In the post-emerge test, a commercial non-ionic surfactant was also included (0.25% v/v) to enhance wetting of the leaf surfaces of target plants. Immediately after application, test units of the pre-emerge applications were watered at the soil surface to incorporate the test materials. Subsequently, these test units were bottom-watered. Post-emerge test units were always bottom-watered.
(§5) At 14 days after application of the test materials, phytotoxicity ratings were recorded. A rating scale of 0-100 was used as previously described in Research Methods in Weed Science, 2nd edition, B. Truelove, Ed., Southern Weed Science Society, Auburn University, Auburn, Ala., 1977. Briefly, “0” corresponds to no damage and “100” corresponds to complete death of all plants in the test unit. This scale was used both to determine efficacy against weed species and damage to crop species. Herbicide activity data for various compounds of this invention, which are shown by compound No. in Tables I-VI, are shown in Tables VIII-IX.

[2] = tested on: common ragweed (Ambrosia artemisiifolia L., AMBEL); assay: as above
Text: as §1, §2, §3, §4, §5

[3] = tested on: green foxtail (Setaria viridis, SETVI); assay: as above
Text: as §1, §2, §3, §4, §5

[4] = tested on: ivyleaf morningglory (Ipomoea hederacea, IPOHE); assay: as above
Text: as §1, §2, §3, §4, §5

[5] = tested on: johnsongrass (Sorghum halepense, SORHA); assay: as above
Text: as §1, §2, §3, §4, §5

[6] = tested on: lambsquarters (Chenopodium album, CHEAL); assay: as above
Text: as §1, §2, §3, §4, §5

[7] = tested on: large crabgrass (Digitaria sanguinalis, DIGSA); assay: as above
Text: as §1, §2, §3, §4, §5

[8] = tested on: redroot pigweed (Amaranthus retroflexus, AMARE); assay: as above
Text: as §1, §2, §3, §4, §5

[9] = tested on: sicklepod (Cassia obtusifolia, CASOB); assay: as above
Text: as §1, §2, §3, §4, §5

[10] = tested on: velvetleaf (Abutilon theophrasti, ABUTH); assay: as above
Text: as §1, §2, §3, §4, §5

[11] = tested on: field corn (Zea mays L., var. Dekalb 535, CORN); assay: Pre-emerge greenhouse screening, crop safety (phytotoxicity rating)
Text: as §1, §2, §3, §4, §5

[12] = tested on: soybean (Glycine max L., var. Pella 86, SOY); assay: as above
Text: as §1, §2, §3, §4, §5

[13] = tested on: upland rice (Oryza sp., var.Tebonnet, RICE); assay: as above
Text: as §1, §2, §3, §4, §5

[14] = tested on: barnyardgrass (Echinochloa crus-galli, ECHCG); assay: Post-emerge greenhouse herbicide activity screening, phytotoxicity rating
Text: as §1, §2, §3, §4, §5

[15] = tested on: common ragweed (Ambrosia artemisiifolia L., AMBEL); assay: as above
Text: as §1, §2, §3, §4, §5

[16] = tested on: green foxtail (Setaria viridis, SETVI); assay: as above
Text: as §1, §2, §3, §4, §5

[17] = tested on: ivyleaf morningglory (Ipomoea hederacea, IPOHE); assay: as above
Text: as §1, §2, §3, §4, §5

[18] = tested on: johnsongrass (Sorghum halepense, SORHA); assay: as above
Text: as §1, §2, §3, §4, §5

[19] = tested on: lambsquarters (Chenopodium album, CHEAL); assay: as above
Text: as §1, §2, §3, §4, §5

[20] = tested on: large crabgrass (Digitaria sanguinalis, DIGSA); assay: as above
Text: as §1, §2, §3, §4, §5

[21] = tested on: redroot pigweed (Amaranthus retroflexus, AMARE); assay: as above
Text: as §1, §2, §3, §4, §5

[22] = tested on: sicklepod (Cassia obtusifolia, CASOB); assay: as above
Text: as §1, §2, §3, §4, §5

[23] = tested on: velvetleaf (Abutilon theophrasti, ABUTH); assay: as above
Text: as §1, §2, §3, §4, §5

[24] = tested on: field corn (Zea mays L., var. Dekalb 535, CORN); assay: Post-emerge greenhouse screening, crop safety / corn selectivity (phytotoxicity rating)
Text: as §1, §2, §3, §4, §5

[25] = tested on: soybean (Glycine max L., var. Pella 86, SOY); assay: Post-emerge greenhouse screening, crop safety (phytotoxicity rating)
Text: as §1, §2, §3, §4, §5

[26] = tested on: upland rice (Oryza sp., var.Tebonnet, RICE); assay: as above
Text: as §1, §2, §3, §4, §5

Cn1c(C(F)(F)F)cc(=O)n(-c2cc(Oc3ncccc3[N+](=O)[O-])c(Cl)cc2F)c1=S [Compound 1-9]
ECHCG phytotoxicity rating (0-100 scale) ([1]; 125 g ai/ha): 95
ECHCG phytotoxicity rating (0-100 scale) ([1]; 250 g ai/ha): 99
AMBEL phytotoxicity rating (0-100 scale) ([2]; 125 g ai/ha): 99
AMBEL phytotoxicity rating (0-100 scale) ([2]; 250 g ai/ha): 100
SETVI phytotoxicity rating (0-100 scale) ([3]; 125 g ai/ha): 100
SETVI phytotoxicity rating (0-100 scale) ([3]; 250 g ai/ha): 100
IPOHE phytotoxicity rating (0-100 scale) ([4]; 125 g ai/ha): 100
IPOHE phytotoxicity rating (0-100 scale) ([4]; 250 g ai/ha): 100
SORHA phytotoxicity rating (0-100 scale) ([5]; 125 g ai/ha): 95
SORHA phytotoxicity rating (0-100 scale) ([5]; 250 g ai/ha): 99
CHEAL phytotoxicity rating (0-100 scale) ([6]; 125 g ai/ha): 100
CHEAL phytotoxicity rating (0-100 scale) ([6]; 250 g ai/ha): 100
DIGSA phytotoxicity rating (0-100 scale) ([7]; 125 g ai/ha): 98
DIGSA phytotoxicity rating (0-100 scale) ([7]; 250 g ai/ha): 99
AMARE phytotoxicity rating (0-100 scale) ([8]; 125 g ai/ha): 100
AMARE phytotoxicity rating (0-100 scale) ([8]; 250 g ai/ha): 100
CASOB phytotoxicity rating (0-100 scale) ([9]; 125 g ai/ha): 70
CASOB phytotoxicity rating (0-100 scale) ([9]; 250 g ai/ha): 99
ABUTH phytotoxicity rating (0-100 scale) ([10]; 125 g ai/ha): 100
ABUTH phytotoxicity rating (0-100 scale) ([10]; 250 g ai/ha): 100
CORN crop damage, phytotoxicity rating (0-100 scale) ([11]; 125 g ai/ha): 8
CORN crop damage, phytotoxicity rating (0-100 scale) ([11]; 250 g ai/ha): 8
SOY crop damage, phytotoxicity rating (0-100 scale) ([12]; 125 g ai/ha): 50
SOY crop damage, phytotoxicity rating (0-100 scale) ([12]; 250 g ai/ha): 50
RICE crop damage, phytotoxicity rating (0-100 scale) ([13]; 125 g ai/ha): 35
RICE crop damage, phytotoxicity rating (0-100 scale) ([13]; 250 g ai/ha): 35
ECHCG phytotoxicity rating (0-100 scale) ([14]; 125 g ai/ha): 50
ECHCG phytotoxicity rating (0-100 scale) ([14]; 250 g ai/ha): 65
AMBEL phytotoxicity rating (0-100 scale) ([15]; 125 g ai/ha): 70
AMBEL phytotoxicity rating (0-100 scale) ([15]; 250 g ai/ha): 70
SETVI phytotoxicity rating (0-100 scale) ([16]; 125 g ai/ha): 60
SETVI phytotoxicity rating (0-100 scale) ([16]; 250 g ai/ha): 70
IPOHE phytotoxicity rating (0-100 scale) ([17]; 125 g ai/ha): 100
IPOHE phytotoxicity rating (0-100 scale) ([17]; 250 g ai/ha): 100
SORHA phytotoxicity rating (0-100 scale) ([18]; 125 g ai/ha): 50
SORHA phytotoxicity rating (0-100 scale) ([18]; 250 g ai/ha): 50
CHEAL phytotoxicity rating (0-100 scale) ([19]; 125 g ai/ha): 100
CHEAL phytotoxicity rating (0-100 scale) ([19]; 250 g ai/ha): 100
DIGSA phytotoxicity rating (0-100 scale) ([20]; 125 g ai/ha): 50
DIGSA phytotoxicity rating (0-100 scale) ([20]; 250 g ai/ha): 60
AMARE phytotoxicity rating (0-100 scale) ([21]; 125 g ai/ha): 100
AMARE phytotoxicity rating (0-100 scale) ([21]; 250 g ai/ha): 100
CASOB phytotoxicity rating (0-100 scale) ([22]; 125 g ai/ha): 50
CASOB phytotoxicity rating (0-100 scale) ([22]; 250 g ai/ha): 65
ABUTH phytotoxicity rating (0-100 scale) ([23]; 125 g ai/ha): 100
ABUTH phytotoxicity rating (0-100 scale) ([23]; 250 g ai/ha): 100
CORN crop damage, phytotoxicity rating (0-100 scale) ([24]; 125 g ai/ha): 0
CORN crop damage, phytotoxicity rating (0-100 scale) ([24]; 250 g ai/ha): 3
SOY crop damage, phytotoxicity rating (0-100 scale) ([25]; 125 g ai/ha): 55
SOY crop damage, phytotoxicity rating (0-100 scale) ([25]; 250 g ai/ha): 80
RICE crop damage, phytotoxicity rating (0-100 scale) ([26]; 125 g ai/ha): 0
RICE crop damage, phytotoxicity rating (0-100 scale) ([26]; 250 g ai/ha): 0
